According to ChEMBL document CHEMBL4665632, “Design, synthesis and biological evaluation of pyridone-aminal derivatives as MNK1/2 inhibitors” (Bioorg Med Chem, 2019):
Calls of active or inactive are those of the source. The calls are words filed in the database; no cut-off is given here.

Columns and labels:
[1] = Antiproliferative activity against […] cells assessed as reduction in cell viability at 20 uM incubated for 72 hrs by MTT assay relative to control; format: functional, Mus musculus
K562 = experiment: Antiproliferative activity against human K562 cells assessed as reduction in cell viability incubated for 72 hrs by MTT assay; format: functional, cell-based; settings: K562, 72 h
[2] = target: T1, MAP kinase-interacting serine/threonine-protein kinase 1 (Homo sapiens, UniProt Q9BUB5); experiment: Inhibition of MNK1 (unknown origin) at 100 nM incubated for 60 mins by HTRF assay
Target sequence in this assay (Q9BUB5 whole entry, looked up, the tested form may be a part): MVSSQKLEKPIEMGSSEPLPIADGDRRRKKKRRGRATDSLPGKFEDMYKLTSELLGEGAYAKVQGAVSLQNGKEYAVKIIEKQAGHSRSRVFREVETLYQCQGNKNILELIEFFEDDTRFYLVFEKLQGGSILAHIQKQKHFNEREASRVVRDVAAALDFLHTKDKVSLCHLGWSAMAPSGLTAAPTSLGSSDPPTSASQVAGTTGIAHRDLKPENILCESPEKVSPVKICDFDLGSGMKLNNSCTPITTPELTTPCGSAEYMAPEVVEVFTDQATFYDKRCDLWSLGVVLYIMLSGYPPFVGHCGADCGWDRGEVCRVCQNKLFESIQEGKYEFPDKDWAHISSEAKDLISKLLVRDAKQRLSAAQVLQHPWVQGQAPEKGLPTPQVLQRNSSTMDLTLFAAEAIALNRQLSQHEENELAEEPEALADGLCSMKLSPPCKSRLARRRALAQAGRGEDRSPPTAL

[3] = target: T2, MAP kinase-interacting serine/threonine-protein kinase 2 (Homo sapiens, UniProt Q9HBH9); experiment: (§1) Inhibition of recombinant human N-terminal GST-tagged MNK2 (1 to 465 residues) expressed in baculovirus expression system using TATKSGSTTKNR as substrate preincubated for 10 mins followed by ATP addition and measured after 40 mins by luminescence based assay
Target sequence in this assay (Q9HBH9 whole entry, the tested form may be a part): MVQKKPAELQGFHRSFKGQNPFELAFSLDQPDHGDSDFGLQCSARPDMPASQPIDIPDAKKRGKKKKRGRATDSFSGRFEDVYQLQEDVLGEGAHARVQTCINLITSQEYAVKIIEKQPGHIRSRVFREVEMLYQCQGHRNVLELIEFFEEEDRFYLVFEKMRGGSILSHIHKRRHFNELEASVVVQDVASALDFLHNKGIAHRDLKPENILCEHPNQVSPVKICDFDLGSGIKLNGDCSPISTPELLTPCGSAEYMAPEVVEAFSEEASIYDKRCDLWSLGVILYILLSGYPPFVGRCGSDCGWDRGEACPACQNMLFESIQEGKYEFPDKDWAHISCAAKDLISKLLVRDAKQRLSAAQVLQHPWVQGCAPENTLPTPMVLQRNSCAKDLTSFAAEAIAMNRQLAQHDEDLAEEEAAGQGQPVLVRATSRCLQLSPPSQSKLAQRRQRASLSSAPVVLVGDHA

[4] = target: T2, MAP kinase-interacting serine/threonine-protein kinase 2; experiment: as §1, with “Potency index, ratio of IC50 of eFT508 to IC50 of compound for inhibition” for “Inhibition”; settings: time 50.0 min
Target sequence in this assay (Q9HBH9 whole entry, looked up, the tested form may be a part): as the sequence (Q9HBH9 whole entry, the tested form may be a part) above

MDA-MB-435 = experiment: Antiproliferative activity against human MDA-MB-435 cells assessed as reduction in cell viability at 20 uM incubated for 72 hrs by MTT assay relative to control; format: functional
HCT-116 = experiment: Antiproliferative activity against human HCT-116 cells assessed as reduction in cell viability at 20 uM incubated for 72 hrs by MTT assay relative to control; format: functional
TMD8 = experiment: Antiproliferative activity against human TMD8 cells assessed as reduction in cell viability incubated for 72 hrs by MTT assay; format: functional, cell-based; settings: TMD8, 72 h
[5] = target: T1, MAP kinase-interacting serine/threonine-protein kinase 1; experiment: as §1, with “Potency index, ratio of IC50 of eFT508 to IC50 of compound for inhibition” for “Inhibition”, “DYKDDDDK-tagged MNK1(1” for “GST-tagged MNK2 (1”, “424” for “465”; settings: time 50.0 min
Target sequence in this assay (Q9BUB5 whole entry, looked up, the tested form may be a part): as the sequence (Q9BUB5 whole entry, looked up, the tested form may be a part) above

A549 = experiment: Antiproliferative activity against human A549 cells assessed as reduction in cell viability incubated at 20 uM for 72 hrs by MTT assay relative to control; format: functional
MV4-11 = experiment: Antiproliferative activity against human MV4-11 cells assessed as reduction in cell viability incubated for 72 hrs by MTT assay; format: functional, cell-based; settings: MV4-11, 72 h
[6] = target: T2, MAP kinase-interacting serine/threonine-protein kinase 2; experiment: Inhibition of MNK2 (unknown origin) at 100 nM incubated for 60 mins by HTRF assay
Target sequence in this assay (Q9HBH9 whole entry, looked up, the tested form may be a part): as the sequence (Q9HBH9 whole entry, the tested form may be a part) above

[7] = target: T1, MAP kinase-interacting serine/threonine-protein kinase 1; experiment: Inhibition of recombinant human N-terminal DYKDDDDK-tagged MNK1(1 to 424 residues) expressed in baculovirus expression system using TATKSGSTTKNR as substrate preincubated for 10 mins followed by ATP addition and measured after 40 mins by luminescence based assay
Target sequence in this assay (Q9BUB5 whole entry, the tested form may be a part): as the sequence (Q9BUB5 whole entry, looked up, the tested form may be a part) above

[8] = target: Cyclin-dependent kinase 1 (Homo sapiens) (UniProt P06493); experiment: Inhibition of CDK1 (unknown origin) at 500 nM relative to control
[9] = target: Receptor-type tyrosine-protein kinase FLT3 (Homo sapiens) (UniProt P36888); experiment: Inhibition of FLT3 (unknown origin) at 500 nM relative to control
CT26 = experiment: Antitumor activity against […] cells xenografted in BALB/c mouse assessed as tumor growth inhibition dosed ip for 14 days; format: functional, organism-based; settings: time 14.0 day
[10] = Antitumor activity against […] cells xenografted in BALB/c mouse assessed as tumor growth inhibition at 20 mg/kg, ip administered for 14 days relative to control; format: functional; settings: 336 h, time 14 day, read-out: TGI
[11] = target: Macrophage colony-stimulating factor 1 receptor (Homo sapiens) (UniProt P07333); experiment: Inhibition of CSF1R (unknown origin) at 500 nM relative to control
[12] = Antitumor activity against […] cells xenografted in BALB/c mouse assessed as tumor growth inhibition at 40 mg/kg, ip administered for 14 days relative to control; format: functional; settings: 336 h, time 14 day, read-out: TGI
[13] = target: T3, MAP kinase-interacting serine/threonine-protein kinase 1/2 (Homo sapiens) (UniProt Q9HBH9+Q9BUB5); experiment: Inhibition of MNK1/MNK2 in […] cells assessed as reduction in eIF4E phosphorylation incubated for 24 hrs by Western blot analysis; format: cell-based
[14] = target: Tyrosine-protein kinase JAK1 (Homo sapiens) (UniProt P23458); experiment: Inhibition of JAK1 (unknown origin) at 500 nM relative to control
[15] = target: T3, MAP kinase-interacting serine/threonine-protein kinase 1/2 (Homo sapiens); experiment: Inhibition of MNK1/MNK2 in […] cells assessed as reduction in eIF4E level at 0.25 to 1 incubated for 24 hrs by Western blot analysis; format: cell-based; settings: dose microM 0.25-1, time 24.0 hrs
[16] = target: T2, MAP kinase-interacting serine/threonine-protein kinase 2; experiment: Inhibition of MNK2 (unknown origin) at 500 nM relative to control
Target sequence in this assay (Q9HBH9 whole entry, looked up, the tested form may be a part): as the sequence (Q9HBH9 whole entry, the tested form may be a part) above

[17] = target: T3, MAP kinase-interacting serine/threonine-protein kinase 1/2 (Homo sapiens); experiment: Inhibition of MNK1/MNK2 in […] cells assessed as reduction in eIF4E phosphorylation at 1 uM incubated for 24 hrs by Western blot analysis relative to control; format: cell-based
[18] = target: T4, Interleukin-1 receptor-associated kinase 4 (Homo sapiens) (UniProt Q9NWZ3); experiment: Inhibition of IRAK4 (unknown origin) at 500 nM relative to control
T4 sequence (whole entry): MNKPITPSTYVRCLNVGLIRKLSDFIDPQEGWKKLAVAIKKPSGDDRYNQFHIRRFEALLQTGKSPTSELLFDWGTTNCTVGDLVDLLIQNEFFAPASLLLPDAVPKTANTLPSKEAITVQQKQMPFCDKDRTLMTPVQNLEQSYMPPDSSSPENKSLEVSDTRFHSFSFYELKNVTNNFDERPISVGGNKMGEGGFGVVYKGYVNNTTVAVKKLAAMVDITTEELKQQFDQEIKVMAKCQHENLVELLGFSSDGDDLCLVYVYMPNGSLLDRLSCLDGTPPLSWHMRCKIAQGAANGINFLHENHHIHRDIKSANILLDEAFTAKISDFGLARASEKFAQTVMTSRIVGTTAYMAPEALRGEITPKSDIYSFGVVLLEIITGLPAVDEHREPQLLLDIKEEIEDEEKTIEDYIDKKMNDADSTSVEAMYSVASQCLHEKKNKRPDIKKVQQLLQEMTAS

[19] = Toxicity in BALB/c mouse xenografted with […] cells assessed as weight loss at 20 to 40 mg/kg, ip administered for 14 days; format: organism-based; settings: in vivo, 336 h, dose 20-40 mg/kg, time 14 day
[20] = target: T1, MAP kinase-interacting serine/threonine-protein kinase 1; experiment: Inhibition of MNK1 (unknown origin) at 500 nM relative to control
Target sequence in this assay (Q9BUB5 whole entry, looked up, the tested form may be a part): as the sequence (Q9BUB5 whole entry, looked up, the tested form may be a part) above

[21] = target: Cyclin-dependent kinase 2 (Homo sapiens) (UniProt P24941); experiment: Inhibition of CDK2 (unknown origin) at 500 nM relative to control
[22] = target: Tyrosine-protein kinase BTK (Homo sapiens) (UniProt Q06187); experiment: Inhibition of BTK (unknown origin) at 500 nM relative to control
[23] = target: AMP-activated protein kinase, AMPK (Homo sapiens) (UniProt P54646+O43741+P54619+Q9UGJ0+Q9Y478+Q13131+Q9UGI9); experiment: Inhibition of AMPK (unknown origin) at 500 nM relative to control; format: protein-complex assay

Sequence of Tyrosine-protein kinase BTK (Homo sapiens) (Q06187 whole entry): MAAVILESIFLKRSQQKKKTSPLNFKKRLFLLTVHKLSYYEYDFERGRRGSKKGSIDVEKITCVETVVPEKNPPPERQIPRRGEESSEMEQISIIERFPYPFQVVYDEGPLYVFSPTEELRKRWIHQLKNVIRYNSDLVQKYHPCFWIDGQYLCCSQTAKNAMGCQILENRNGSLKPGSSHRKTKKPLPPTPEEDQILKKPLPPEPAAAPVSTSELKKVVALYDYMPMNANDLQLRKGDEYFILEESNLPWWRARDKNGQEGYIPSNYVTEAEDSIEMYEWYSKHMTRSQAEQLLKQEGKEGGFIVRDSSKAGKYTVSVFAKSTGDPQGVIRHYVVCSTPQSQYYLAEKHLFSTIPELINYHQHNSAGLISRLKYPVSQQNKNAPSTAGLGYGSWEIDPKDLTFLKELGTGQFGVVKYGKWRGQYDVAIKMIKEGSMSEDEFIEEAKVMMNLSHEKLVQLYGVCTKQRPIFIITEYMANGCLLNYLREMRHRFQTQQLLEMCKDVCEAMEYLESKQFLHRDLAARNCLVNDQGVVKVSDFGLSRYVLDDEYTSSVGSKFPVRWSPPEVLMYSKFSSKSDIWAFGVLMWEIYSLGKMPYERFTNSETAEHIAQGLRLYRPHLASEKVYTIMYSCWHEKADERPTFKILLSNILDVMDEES
Sequence of Tyrosine-protein kinase JAK1 (Homo sapiens) (P23458 whole entry): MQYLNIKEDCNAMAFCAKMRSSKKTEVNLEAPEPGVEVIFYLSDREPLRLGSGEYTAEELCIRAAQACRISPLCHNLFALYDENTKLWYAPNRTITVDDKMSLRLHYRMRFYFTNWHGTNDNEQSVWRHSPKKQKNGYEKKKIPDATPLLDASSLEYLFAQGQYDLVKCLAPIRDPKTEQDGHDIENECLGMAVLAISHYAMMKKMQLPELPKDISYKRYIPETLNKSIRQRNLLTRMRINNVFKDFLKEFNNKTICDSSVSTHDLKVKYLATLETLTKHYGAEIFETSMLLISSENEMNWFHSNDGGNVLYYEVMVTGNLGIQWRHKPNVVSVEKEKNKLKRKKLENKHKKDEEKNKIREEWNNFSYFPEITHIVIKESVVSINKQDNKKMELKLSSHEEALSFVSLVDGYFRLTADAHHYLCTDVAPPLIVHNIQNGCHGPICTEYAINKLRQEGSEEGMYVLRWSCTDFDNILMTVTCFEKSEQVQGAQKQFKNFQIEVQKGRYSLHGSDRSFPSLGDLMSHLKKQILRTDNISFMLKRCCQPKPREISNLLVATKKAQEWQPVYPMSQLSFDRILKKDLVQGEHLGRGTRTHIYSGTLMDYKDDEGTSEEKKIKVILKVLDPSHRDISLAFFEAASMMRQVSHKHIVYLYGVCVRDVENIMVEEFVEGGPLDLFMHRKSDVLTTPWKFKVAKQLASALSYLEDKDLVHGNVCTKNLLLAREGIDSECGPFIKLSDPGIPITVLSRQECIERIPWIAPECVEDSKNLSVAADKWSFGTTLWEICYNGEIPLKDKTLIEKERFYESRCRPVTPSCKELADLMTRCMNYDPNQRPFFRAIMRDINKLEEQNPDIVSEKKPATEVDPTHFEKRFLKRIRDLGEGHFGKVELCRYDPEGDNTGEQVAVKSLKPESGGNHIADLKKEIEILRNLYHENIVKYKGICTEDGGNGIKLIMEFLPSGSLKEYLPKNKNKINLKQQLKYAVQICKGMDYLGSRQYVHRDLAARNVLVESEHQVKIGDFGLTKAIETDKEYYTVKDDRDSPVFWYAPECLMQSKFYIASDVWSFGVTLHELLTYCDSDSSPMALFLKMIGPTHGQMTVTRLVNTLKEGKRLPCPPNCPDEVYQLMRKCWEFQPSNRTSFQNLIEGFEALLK
Sequence of Receptor-type tyrosine-protein kinase FLT3 (Homo sapiens) (P36888 whole entry): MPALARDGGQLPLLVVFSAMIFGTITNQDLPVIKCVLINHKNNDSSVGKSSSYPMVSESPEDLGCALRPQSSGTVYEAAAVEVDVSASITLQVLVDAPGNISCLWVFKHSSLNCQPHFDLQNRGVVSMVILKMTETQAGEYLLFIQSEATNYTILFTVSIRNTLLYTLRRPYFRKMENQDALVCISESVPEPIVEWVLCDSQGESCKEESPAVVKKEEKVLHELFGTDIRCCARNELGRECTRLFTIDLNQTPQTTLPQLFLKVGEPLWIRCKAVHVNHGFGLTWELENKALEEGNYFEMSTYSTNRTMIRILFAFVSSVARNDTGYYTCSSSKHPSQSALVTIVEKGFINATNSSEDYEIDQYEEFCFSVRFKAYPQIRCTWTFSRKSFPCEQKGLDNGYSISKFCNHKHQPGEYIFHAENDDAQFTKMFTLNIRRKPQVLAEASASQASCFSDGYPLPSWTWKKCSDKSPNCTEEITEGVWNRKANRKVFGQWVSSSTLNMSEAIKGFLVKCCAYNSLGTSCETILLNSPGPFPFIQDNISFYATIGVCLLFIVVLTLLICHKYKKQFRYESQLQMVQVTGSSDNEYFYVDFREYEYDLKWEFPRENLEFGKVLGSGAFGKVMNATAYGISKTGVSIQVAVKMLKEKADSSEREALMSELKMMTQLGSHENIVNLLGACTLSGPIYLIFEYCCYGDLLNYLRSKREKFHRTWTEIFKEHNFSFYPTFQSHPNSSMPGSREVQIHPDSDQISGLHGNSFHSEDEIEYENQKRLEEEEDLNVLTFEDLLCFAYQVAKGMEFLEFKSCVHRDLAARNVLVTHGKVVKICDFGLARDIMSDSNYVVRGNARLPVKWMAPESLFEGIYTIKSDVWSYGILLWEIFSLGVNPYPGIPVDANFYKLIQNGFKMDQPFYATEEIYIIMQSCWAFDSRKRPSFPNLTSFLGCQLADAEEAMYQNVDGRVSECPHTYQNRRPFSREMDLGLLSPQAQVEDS
Sequence of Cyclin-dependent kinase 1 (Homo sapiens) (P06493 whole entry, looked up): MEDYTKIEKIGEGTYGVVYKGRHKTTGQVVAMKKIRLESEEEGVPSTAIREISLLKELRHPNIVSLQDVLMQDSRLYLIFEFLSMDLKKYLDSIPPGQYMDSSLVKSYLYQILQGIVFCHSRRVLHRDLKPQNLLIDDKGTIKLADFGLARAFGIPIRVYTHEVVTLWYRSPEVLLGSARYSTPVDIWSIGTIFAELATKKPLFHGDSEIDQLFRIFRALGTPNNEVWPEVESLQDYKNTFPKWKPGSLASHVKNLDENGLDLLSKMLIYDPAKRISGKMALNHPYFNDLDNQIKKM

Row | Structure (SMILES) | IC50 (K562) [µM] | inhibition [2] [%] | IC50 [3] [µM] | IC50 (MV4-11) [µM] | inhibition [6] [%] | IC50 [7] [µM] | inhibition at 20 µM [1] [%] | inhibition at 20 µM (MDA-MB-435) [%] | inhibition at 20 µM (HCT-116) [%] | IC50 (TMD8) [µM] | inhibition at 20 µM (A549) [%] | further results
1 | Cc1cc(Nc2ccncc2)c(=O)n2c1C(=O)NC21CCCCC1 | > 20 | 60.7 | 0.138 | > 20 | 88.3 | 0.24 | 24 | 48.6 | 12.9 | > 20 | 23.1 | –
2 | Cc1cc(Nc2ccnc(N)n2)c(=O)n2c1C(=O)NC21CCCCC1 | > 20 | 52.7 | 0.228 | > 20 | 66.3 | 0.39 | 35 | 25.8 | 30.7 | > 20 | 22.6 | –
3 | Cc1cc(Nc2ccnc(N)c2)c(=O)n2c1C(=O)NC21CCCCC1 | > 20 | 72.5 | 0.0482 | > 20 | 70.5 | 0.0523 | 30.1 | 37.7 | 42.2 | 11.2 | 21.5 | –
4 | Cc1cc(Nc2ccnnc2)c(=O)n2c1C(=O)NC21CCCCC1 | > 20 | 59.8 | 0.162 | 13.3 | 70.3 | 0.16 | 24.3 | 33 | 22.7 | 8.78 | 14 | –

Further lines, with some results ahead:

Row | IC50 (K562) [µM] | inhibition [2] [%] | IC50 [3] [µM] | IC50 (MV4-11) [µM] | inhibition [6] [%] | IC50 [7] [µM] | Structure (SMILES) | inhibition at 20 µM [1] [%] | inhibition at 20 µM (MDA-MB-435) [%] | inhibition at 20 µM (HCT-116) [%] | IC50 (TMD8) [µM] | inhibition at 20 µM (A549) [%] | further results
5 | 13 | 77.2 | 0.0075 | 9.64 | 89 | 0.0087 | Cc1cc(Nc2cc(N3CCN(CCN(C)C)CC3)ncn2)c(=O)n2c1C(=O)NC21CCCCC1 | 40.5 | 35.2 | 30.5 | 1.92 | 48.4 | Ratio IC50 [4]: 2; Ratio IC50 [5]: 2
6 | 11.7 | 76.5 | 0.0061 | 10 | 91.2 | 0.007 | Cc1cc(Nc2cc(N3CCN(CCCN(C)C)CC3)ncn2)c(=O)n2c1C(=O)NC21CCCCC1 | 58.3 | 49 | 42.9 | 0.91 | 41.3 | inhibition [8]: 4%; inhibition [9]: 9%; TGI (CT26): Dose-dependent effect; inhibition in vivo at 20 mg/kg [10]: 41.4%; inhibition [11]: 6%; inhibition in vivo at 40 mg/kg [12]: 60.4%; inhibition [13]: Dose-dependent effect; Ratio IC50 [4]: 2; inhibition [14]: 6%; inhibition [15]: inactive; inhibition [16]: 103%; inhibition [17]: 100%; Ratio IC50 [5]: 2; inhibition [18]: 21%; Activity [19]: Non-Toxic; inhibition [20]: 96%; inhibition [21]: 7%; inhibition [22]: 3%; inhibition [23]: 11%
7 | 13.5 | 87.8 | – | 14.5 | 98.8 | – | Cc1cc(Nc2cc(N)ncn2)c(=O)n2c1C(=O)NC21CCCCC1 [TOMIVOSERTIB] | 43.1 | 49.2 | 52.7 | 2.53 | 40.6 | inhibition in vivo at 20 mg/kg [10]: 59%
8 | > 20 | 73.3 | 0.0638 | > 20 | 86.9 | 0.0689 | CC(=O)N1CCN(c2cc(Nc3cc(C)c4n(c3=O)C3(CCCCC3)NC4=O)ncn2)CC1 | 46.7 | 16 | 28.9 | 8.33 | 28.8 | –
9 | > 20 | 66.4 | 0.0498 | 18.5 | 75.8 | 0.0552 | Cc1cc(Nc2cc(NC3CCNCC3)ncn2)c(=O)n2c1C(=O)NC21CCCCC1 | 18.5 | 59.2 | 35.2 | 11 | 43.9 | –
10 | 14.2 | 82.2 | 0.0083 | > 20 | 97.3 | 0.0105 | Cc1cc(Nc2ccncn2)c(=O)n2c1C(=O)NC21CCCCC1 | 48.3 | 52.4 | 40.1 | 6.22 | 40.5 | –
